According to US11793782B2, “Therapeutic agents for neurodegenerative diseases” (priority 2017, dated 2023):

Tests used:
[1] = tested on: NPC Chinese Hamster Ovary (CHO) cells; test: Relative lysosomal volume via LysoTracker, NPC CHO cells; type: cell-based; conditions: 1 mM, 72 hours, p<0.01 versus untreated NPC1-null
Source text: Relative lysosomal volume was quantified via LysoTracker.

[2] = tested on: Niemann-Pick A (NPA) patient fibroblasts; test: Lysosomal volume via LysoTracker, NPA fibroblasts; type: cell-based, human; conditions: 1 mM, 6 days
[3] = tested on: corticobasal syndrome patient; test: Case study, corticobasal syndrome; type: in vivo, human
Method: Gait analysis was performed before treatment commenced.

MSA-P patients = test: Case studies, multiple system atrophy Parkinson type (MSA-P) patients; type: in vivo, human
Source text: Medication was stopped. […] The patient evaluated after one month on acetyl-DL-leucine. […] Episodes of mental confusion completely disappeared. The patient's cognitive structure seemed much clearer and straighter. […] The patient's spouse supported continuing the medication.

vertigo patients = conditions: used in France to treat acute vertigo since 1957; cited from earlier work
[4] = tested on: Mucopolysaccharidosis Type IIIB (MPS IIIB) patient fibroblasts; test: Lysosomal volume via LysoTracker, MPS IIIB fibroblasts; type: cell-based, human; conditions: 1 mM, 6 days
[5] = tested on: downbeat nystagmus patients; test: Case studies, downbeat nystagmus patients; type: in vivo, human
Source text: The patient was diagnosed with downbeat nystagmus: the patient was severely impaired by blurred vision (oscillopsia) due to the nystagmus, and experienced difficulties while reading and writing. The patient's visual acuity was: right 0.75, left 0.67, binocular 0.83, and the downbeat nystagmus was documented by video-oculography. […] The patient could partially suppress the nystagmus by visual fixation, as evaluated using a target center (dot presented in the center of a display for 30 seconds, FIG. 13A) and in complete darkness using goggles covered with special glasses for 45 seconds (FIG. 13B). The results (median of slow phase velocity, SPV) were as follows: Target Center-horizontal: −0.02°/s, vertical: 2.41°/s; Complete Darkness-horizontal: 0.05°/s, vertical: 3.27°/s (FIG. 13C).

[6] = tested on: Hexb−/− mouse (Sandhoff disease model); test: Bar crossing test, Sandhoff mouse; type: in vivo; conditions: 0.1 g/kg body weight from 3 weeks of age
Source text: The bar crossing test is a method for assessing motor function in mice in which the mouse is placed hanging from the centre of a horizontal bar by its front limbs. A wild-type mouse with normal motor function will be able to engage its hind limbs and thereby move to one of the platforms at either end of the bar, and in doing so complete the test. An untreated Sandhoff mouse is able to complete the test up until around 11 weeks of age. After this point motor function and hind-limb mobility/engagement have deteriorated to the point to which the mouse cannot complete the test, and will drop from the bar onto the padded surface below. […] In FIG. 7 B, acetyl-leucine treatment of 0.1 g/kg body weight was provided from 3 weeks of age. The acetyl-leucine treated Sandhoff mice retained the ability to complete the test up to 13 weeks of age (inclusive). Data shown is the mean of 6 mice per group. […]

[7] = tested on: frontotemporal dementia with parkinsonism patient; test: Case study, frontotemporal dementia with parkinsonism; type: in vivo, human; conditions: frontotemporal dementia with parkinsonism
Source text: After approximately one month of acetyl-leucine treatment, medication was stopped and the patient was re-examined 13 days later.

[8] = tested on: downbeat nystagmus patients; test: Case studies, downbeat nystagmus patients; type: in vivo, human; conditions: downbeat nystagmus Patient 2
[9] = tested on: GM1 Gangliosidosis patient; test: Case study, GM1 Gangliosidosis patient; type: in vivo, human; conditions: after one month
Source text: The patient in this case study was a person who was genetically diagnosed with GM1 Gangliosidosis and who was not able to stand or walk by themself, was very limited in daily activities (eating, washing, dressing themself was not possible), and had ocular movement disorder, anarthria, and distinct problems in cognitive function and concentration (neurological examination was not possible).
The patient was started on therapy with acetyl-leucine at a dose of 1.5 g per day for the first week, followed by a dose of 3 g per day for the second week onwards.

[10] = tested on: fibroblast cell line from an NPC patient; test: Relative lysosomal volume via LysoTracker, NPC fibroblasts; type: cell-based, human; conditions: 1 mM
Method: A fibroblast cell line from an NPC patient was treated for 3 days with N-acetyl-DL-leucine (1 mM) and relative lysosomal volume was quantified via LysoTracker, a fluorescent dye that accumulates in acidic organelles. Increased LysoTracker fluorescence is indicative of an increase in lysosomal size and/or number, and is a hallmark of NPC cells.

[11] = MSA-P Patient 2, after 1 month of treatment
[12] = MSA-P Patient 2, after 1 month without treatment
[13] = MSA-P Patient 2, after 2 months without treatment
[14] = downbeat nystagmus Patient 1, approximately 14 weeks after starting
[15] = downbeat nystagmus Patient 2, on treatment, Complete Darkness
[16] = downbeat nystagmus Patient 2, on treatment, Target Center

In the case of `CC(=O)NC(CC(C)C)C(=O)O` (racemic) [acetyl-DL-leucine], the “Lysosomal volume (LysoTracker)” value [1] is reported as “significantly reduced lysosomal volume”, the “LysoTracker fluorescence relative to untreated disease fibroblasts” value [2] is reported as “statistically significant reduction in LysoTracker fluorescence” and the Clinical observation ([3]; 5 g per day, after 20 days) is reported as “improvement of dizziness symptoms and significant reduction in the frequency of falls”. For the same molecule, the “Coefficient of variation (temporal)” value ([3]; after 20 days of treatment, before 3.9) was 3.4, the Track width ([3]; after 20 days of treatment, before 12.1) was 12.3 cm and the “Functional Gait Assessment” value ([3]; after 20 days of treatment, before 13/30) was 18/30. For the same molecule, the Double stance ([3]; after 20 days of treatment, before 29.8) was 26.6%, the speed ([3]; after 20 days of treatment, before 63) was 92 cm/s and the Step cycle length ([3]; after 20 days of treatment, before 84) was 104 cm. The cadence ([3]; after 20 days of treatment, before 90) was 106 steps/minute, the Max. speed ([3]; after 20 days of treatment, before 131) was 152 cm/s and the “Symptoms after suspension of treatment” value ([3]; two days after suspension, after 8 weeks of treatment) was “increase of dizziness symptoms”. For the same molecule, the Clinical observation (MSA-P patients; MSA-P Patient 1, 5 g/day, after 3 weeks) was “no significant improvement of gait, reduction of falls or improved hypokinetic rigid-syndrome”, the Clinical observation (MSA-P patients; MSA-P Patient 2, 5 g per day, after one month of treatment) was “subjective improvement of dizziness” and the “Coefficient of variation (temporal)” value (MSA-P patients; [11]) was 2.7. For the same molecule, the Double stance (MSA-P patients; [11]) was 25.6%, the “Functional Gait Assessment” value (MSA-P patients; [11]) was 24/30 and the Max. speed (MSA-P patients; [11]) was 214 cm/s. The Step cycle length (MSA-P patients; [11]) was 120 cm, the Track width (MSA-P patients; [11]) was 3.8 cm and the cadence (MSA-P patients; [11]) was 109 steps/minute. For the same molecule, the speed (MSA-P patients; [11]) was 109 cm/s, the “Coefficient of variation (temporal)” value (MSA-P patients; [12]) was 1.7 and the Double stance (MSA-P patients; [12]) was 22.5%. The “Functional Gait Assessment” value (MSA-P patients; [12]) was 25/30, the Max. speed (MSA-P patients; [12]) was 196 cm/s and the Step cycle length (MSA-P patients; [12]) was 126 cm. For the same molecule, the Track width (MSA-P patients; [12]) was 2.3 cm, the cadence (MSA-P patients; [12]) was 109 steps/minute and the speed (MSA-P patients; [12]) was 114 cm/s. For the same molecule, the “Coefficient of variation (temporal)” value (MSA-P patients; [13]) was 2.1, the Double stance (MSA-P patients; [13]) was 26.7% and the “Functional Gait Assessment” value (MSA-P patients; [13]) was 22/30. It also gave a Max. speed (MSA-P patients; [13]) of 177 cm/s, a Step cycle length (MSA-P patients; [13]) of 107 cm and a Track width (MSA-P patients; [13]) of 3.4 cm. For the same molecule, the cadence (MSA-P patients; [13]) was 106 steps/minute, the speed (MSA-P patients; [13]) was 94 cm/s and the Symptoms without medication (MSA-P patients; MSA-P Patient 2, after two months without medication) was “worsening of general symptomatology”. For the same molecule, the “Cognitive function (wife's report)” value (MSA-P patients; MSA-P Patient 3, 5 g per day, after one month) was “significant improvement of cognitive function”, the Gait function (MSA-P patients; MSA-P Patient 3, after one month) was “no improvement of gait function” and the Safety profile (vertigo patients) was “excellent safety profile”. For the same molecule, the “LysoTracker fluorescence relative to untreated disease fibroblasts” value [4] was “statistically significant reduction in LysoTracker fluorescence”, the “Effect of temporary suspension of the medication” value ([5]; downbeat nystagmus Patient 1) was “considerable deterioration” and the Patient-reported benefit ([5]; downbeat nystagmus Patient 1, 5 gram per day, after 10 days) was “significant benefit”. For the same molecule, the “Nystagmus (clinical examination)” value [5, 14] was “reduction of the nystagmus”, the Posturography [5, 14] was “reduction of postural sway” and the “Visual acuity, left” value ([5]; downbeat nystagmus Patient 1, approximately 14 weeks after starting, before 0.67) was 1.0. The “Visual acuity, right” value ([5]; downbeat nystagmus Patient 1, approximately 14 weeks after starting, before 0.75) was 0.83, the “Visual acuity, binocular” value ([5]; downbeat nystagmus Patient 1, approximately 14 weeks after starting, before 0.83) was 1 and the Side-effects ([5]; downbeat nystagmus Patient 1, continued treatment at 5 gram per day) was “no side-effects”. The Clinical observation ([5]; downbeat nystagmus Patient 2, 5 g/day) was “improvement of gait”, the “Median of slow phase velocity (SPV), horizontal” value [5, 15] was 0.05 °/s and the “Median of slow phase velocity (SPV), vertical” value [5, 15] was 3.27 °/s. For the same molecule, the “Median of slow phase velocity (SPV), horizontal” value [5, 16] was −0.02 °/s, the “Median of slow phase velocity (SPV), vertical” value [5, 16] was 2.41 °/s and the Maximal gait velocity ([5]; downbeat nystagmus Patient 2, on treatment, increase from 122) was 155 cm/s. For the same molecule, the “Age up to which ability to complete the bar crossing test was retained” value ([6]; Sandhoff mice, untreated around 11 weeks) was “up to 13 weeks of age”, the “Motor function in bar-crossing test” value ([6]; Sandhoff mouse model) was “improved motor function and hind-limb mobility/engagement” and the Gait ([7]; 5 gram per day, approximately one month of treatment) was “significant improvement of gait”. The “Symptoms after suspension of treatment” value ([7]; re-examined 13 days after stopping) was “symptoms worsened”, the Speech ([7]; under therapy) was “improvement of speech” and the Falls ([7]; under therapy, before 2-3 falls per month) was “falls stopped”. For the same molecule, the “Self-chosen velocity (gait analysis)” value ([8]; about one month after stopping treatment, decrease from 85) was 72 cm/s, the Maximal gait velocity ([8]; about one month after stopping treatment, decrease from 155) was 113 cm/s and the “Self-chosen velocity (gait analysis)” value ([8]; on treatment, increase from 56) was 85 cm/s. The SARA ([9]; 3 g per day, baseline 35/40) was 35/40, the Clinical observation [9] was “stable general condition, increased gait (more fluent), and stable stance in natural position” and the mRDS ([9]; baseline 15) was 16. The EQ-5D-5L visual scale ([9]; baseline 50) was 60, the “LysoTracker fluorescence (lysosomal volume)” value ([10]; fibroblasts from NPC patient of mild clinical severity) was “significant decrease in LysoTracker fluorescence” and the “LysoTracker fluorescence (lysosomal volume)” value ([10]; fibroblasts from additional NPC patients of variable clinical severity, 72 hours) was “replicated”.
